# How the values were obtained:
# MYC:MAX interaction = MYC:MAX interaction (Homo sapiens, UniProt P01106); test: co-immunoprecipitation of endogenous MYC and MAX; format: cell-based; conditions: 5 μM, MCF7 cells
# Procedure: FIG. 1: MYCMI-7 (Compound Example 1) inhibits the MYC:MAX interaction in cells, bind MYC in vitro, and blocks MYC function. A) Molecular structure of MYCMI-7. B-E) split Gaussia luciferase (GLuc) assay. MYC or MYCN and MAX Gluc constructs were co-transfected into HeLa cells together with a firefly luciferase vector. 24 hours post transfection cells were treated with compounds, and after another 17-24 hours cells were harvested and both GLuc and firefly luciferase activities were measured. The mean of three different experiments is shown. Treatment with: B) 5 μM of MYCMI-7, 64 μM 10058-F4 or 5 μM JQ1, respectively, C) 6.5 μM MYCMI-7 on cells expressing MYC:MAX GLuc vs. GCN4:GCN4 GLuc, D) 5 μM MYCMI-7 and 5 μM ellipticine. E) 5 μM MYCMI-7 for various time points. F) in situ proximity ligation assay (isPLA). […] G) Quantification of isPLA dots. […] J) MYC target gene ODC1 expression after treatment with 5 μM MYCMI-7, quantified by qPCR. […] L) Recombinant MYC bHLHZip protein domain immobilized onto a CM5 chip was subjected to various concentrations of MYCMI-7 and the complex of MYCbHLHZip-MYCMI-7 was measured as response units by SPR. […]
# For western blot equal amounts of proteins ([…]) were separated on a 4-12% SDS-PAGE gel. Proteins were transferred to Immobilion-P membrane (Millipore) and detected by immunostaining and chemoluminescence (Immobilion western HRP substrate; Millipore). […]
# [1] = molecular target: T1, recombinant bHLHZip domain of the MYC protein (Homo sapiens, UniProt P01106); test: surface plasmon resonance (SPR), MYC bHLHZip; format: binding
# T1 construct: using the recombinant bHLHZip domain of the MYC protein; 6xHis (N); made in house; host or cells: E. coli BL21 (DE3)
# Procedure: FIG. 1: MYCMI-7 (Compound Example 1) inhibits the MYC:MAX interaction in cells, bind MYC in vitro, and blocks MYC function. A) Molecular structure of MYCMI-7. B-E) split Gaussia luciferase (GLuc) assay. MYC or MYCN and MAX Gluc constructs were co-transfected into HeLa cells together with a firefly luciferase vector. 24 hours post transfection cells were treated with compounds, and after another 17-24 hours cells were harvested and both GLuc and firefly luciferase activities were measured. The mean of three different experiments is shown. Treatment with: B) 5 μM of MYCMI-7, 64 μM 10058-F4 or 5 μM JQ1, respectively, C) 6.5 μM MYCMI-7 on cells expressing MYC:MAX GLuc vs. GCN4:GCN4 GLuc, D) 5 μM MYCMI-7 and 5 μM ellipticine. E) 5 μM MYCMI-7 for various time points. F) in situ proximity ligation assay (isPLA). […] MYC:GAL4 was used as negative control in the isPLA assay. G) Quantification of isPLA dots. (H) Co-immunoprecipitation (co-IP) of endogenous MYC and MAX proteins from MCF7 cells after treatment with 5 μM MYCMI-7 at various times. IP=immunoprecipitation; W=western blot. […] J) MYC target gene ODC1 expression after treatment with 5 μM MYCMI-7, quantified by qPCR. […] L) Recombinant MYC bHLHZip protein domain immobilized onto a CM5 chip was subjected to various concentrations of MYCMI-7 and the complex of MYCbHLHZip-MYCMI-7 was measured as response units by SPR. […]
# [2] = test system: immortalized Rat1 fibroblasts with different MYC status; test: apoptosis assay (Cell Death Detection ELISA), Rat1 fibroblasts; format: cell-based, rat; conditions: 24 hours
# Procedure: (§1) FIG. 4: MYCMI-7 induces apoptosis in malignant cells and growth arrest in normal cells. A) Cell cycle distribution analysis by flow cytometry of MYC-regulated P493-6 cells and normal rat embryo fibroblasts (REFs). Left panel, P493-6 synchronized in G0 by 24 hours treatment of […] doxycycline. Doxycycline was removed and the cells were harvested 48 hours after the addition of fresh medium containing DMSO or 5 μM MYCMI-7. Right panel, flow cytometry analysis of normal REFs treated with DMSO or 5 μM MYCMI-7. B) Apoptosis assay using the Cell Death Detection ELISA^plus kit. Left panel, immortalized Rat1 fibroblasts with different MYC status after 24 hours of 5 μM MYCMI-7 treatment, middle panel and right panels, normal REFs and normal peripheral blood lymphocytes, respectively, after 24 and 48 hours of 5 μM MYCMI-7 treatment. C) Measurement of viability and apoptosis by Apo-Tox Glo Triplex assay in A375 melanoma cells after 3 days of treatment with MYCMI-7 with the indicated concentrations. […] E) NHDFs treated with 3 μM MYCMI-7 for 72 hrs. Viability was measured by trypan blue exclusion assay. F) Cell growth measured with Cyt62 assay of primary normal human epidermal melanocytes (NHEM) treated for 72 hours with MYCMI-7, G) Viability measured by trypan blue exclusion assay of NHEM after treatment for 72 hours with MYCMI-7.
# [3] = test system: Normal human dermal fibroblasts (NHDF); test: resazurin, cell count and trypan blue, NHDF; format: cell-based
# Procedure: as §1
# [4] = test system: SKN-DZ neuroblastoma cells with MYCN-amplification; test: 3D colony formation in agarose, SK-N-DZ; format: cell-based; conditions: 3D cultures, 2 weeks
# Procedure: C) 3D cultures of SKN-DZ neuroblastoma cells with MYCN-amplification exposed to indicated concentrations of MYCMI-7 for 2 weeks. Colony formation in agarose was detected by MTT staining and quantified.
# For anchorage-independent growth assay, cells were suspended in 250 μl 0.35% SeaPlaque agarose (InVitro) and seeded into 24 well plates which had previously been coated with a bottom layer of 250 μl 0.7% agarose. After 16 days, the colonies were stained with 100 μg/ml MTT (Sigma) overnight and colonies were counted.
# [5] = intracerebroventricular injection, toxicity; conditions: highest concentration (10 μM)
# Description: First, we performed a pharmacokinetic study of the behavior of the molecule in mice.
# [6] = test system: Purified AML cells from spleens of moribund mice; test: purified MYC/BCL-XL AML cells in culture; conditions: Mus musculus
# Chain of MYC:MAX interaction (P01106 16-454): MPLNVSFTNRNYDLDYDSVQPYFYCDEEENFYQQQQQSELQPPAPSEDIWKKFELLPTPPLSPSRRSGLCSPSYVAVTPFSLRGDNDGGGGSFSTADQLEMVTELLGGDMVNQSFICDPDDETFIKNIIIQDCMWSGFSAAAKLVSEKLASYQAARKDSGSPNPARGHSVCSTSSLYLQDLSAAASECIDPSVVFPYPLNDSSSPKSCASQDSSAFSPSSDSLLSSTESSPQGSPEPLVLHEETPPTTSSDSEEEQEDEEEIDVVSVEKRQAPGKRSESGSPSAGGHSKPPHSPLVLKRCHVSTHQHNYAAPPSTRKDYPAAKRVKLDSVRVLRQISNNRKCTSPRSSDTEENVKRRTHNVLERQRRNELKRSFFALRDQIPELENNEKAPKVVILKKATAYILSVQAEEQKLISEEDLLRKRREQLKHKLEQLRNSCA
# T1 sequence (P01106 368-454 limits assumed): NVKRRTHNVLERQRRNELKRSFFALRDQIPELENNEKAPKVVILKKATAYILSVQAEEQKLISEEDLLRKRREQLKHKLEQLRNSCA
structure (smiles),measurement,setting,value
"CCN(CC)CC[n+]1ccc2c(C)c3[nH]c4ccccc4c3c(C)c2c1 [MYCMI-7, 2-(5,11-Dimethyl-6H-25-pyrido[4,3-b]carbazol-2-yl)-N,N-diethylethanamine bromide]",MYC:MAX interaction by co-IP,MYC:MAX interaction; 1 hour after treatment,decreased
same,MYC:MAX interaction by co-IP,MYC:MAX interaction; 4 hours,reduced drastically
same,binding to recombinant MYC by SPR,[1],binds directly to MYC
same,Kd,"[1]; SPR, Langmuir 1:1 analysis",~4 µM
same,apoptosis,"[2]; MYC knockout HO15.19, 5 μM",not
same,apoptosis,"[2]; TGR1 and HOMyc3, 5 μM",induced apoptosis
same,cell number and metabolic activity normalized to DMSO,"[3]; 3 days, low micromolar concentrations",lower overall cell number and metabolic activity
same,cell viability (trypan blue),[3]; 72 hrs,unaffected
same,GI50,[4],nanomolar range
same,toxicity after intracerebroventricular injection,[5],no signs of toxicity
same,GI50,[6],< 1 µM
